# Data published in patent US20040034039A1, “Solid preparations” (priority 2000, published 2004).
# Test: Contact angle of a water drop on a compression-molded product
# Type: physicochemical
# Settings: purified water drop on 300 mg, 13 mm compression-molded product (1 ton/cm^2), 15 seconds after placing
# Procedure: The “water-repellent physiologically active substance” to be used in the present invention is exemplified by a substance difficult to get wet, or having a large contact angle, and the like. A specific example thereof is a physiologically active substance having a contact angle of not less than 40 degrees, preferably not less than 60 degrees, more preferably not less than 80 degrees, as measured by forming a compression-molded product (300 mg) having a diameter of 13 mm with Shimadzu autograph (AG-5000B, manufactured by Shimadzu Corporation) at a load of 1 ton/cm^2, placing one drop of purified water on the surface thereof with a syringe, and determining the contact angles of the water drop at 15 seconds after placing with an automatic contact angle meter (CA-Z, manufactured by Kyowa Interface Science Co., Ltd.), and the like. The contact angle of a representative highly water-repellent substance, magnesium stearate, compound A to be mentioned later: (5-(N-benzyl-N-methylaminomethyl)-1-(2,6-difluorobenzyl)-6-[4-(3-methoxyureido)phenyl]-3-phenylthieno[2,3-d]jpyrimidine-2,4(1H,3H)-dione), and compound B to be mentioned later (3-(N-benzyl-N-methylaminomethyl)-4,7-dihydro-5-isobutyryl-7-(2,6-difluorobenzyl)-2-[4-[(1-hydroxycyclopropyl)carbonylamino]phenyl]-4-oxothieno[2,3-b]pyridine) as measured according to the aforementioned method were about 96 degrees, about 90 degrees and about 88 degrees respectively.
row,contact angle,Compound
1,about 90 degrees,"CONC(=O)Nc1ccc(-c2sc3c(c2CN(C)Cc2ccccc2)c(=O)n(-c2ccccc2)c(=O)n3Cc2c(F)cccc2F)cc1 [compound A, 5-(N-benzyl-N-methylaminomethyl)-1-(2,6-difluorobenzyl)-6-[4-(3-methoxyureido)phenyl]-3-phenylthieno[2,3-d]pyrimidine-2,4(1H,3H)-dione]"
2,about 88 degrees,"CC(C)C(=O)c1cn(Cc2c(F)cccc2F)c2sc(-c3ccc(NC(=O)C4(O)CC4)cc3)c(CN(C)Cc3ccccc3)c2c1=O [compound B, 3-(N-benzyl-N-methylaminomethyl)-4,7-dihydro-5-isobutyryl-7-(2,6-difluorobenzyl)-2-[4-[(1-hydroxycyclopropyl)carbonylamino]phenyl]-4-oxothieno[2,3-b]pyridine]"

row,Compound,contact angle
1,magnesium stearate [reference compound],about 96 degrees
